Measurements taken from US20160375006A1, “USES OF PARALOG-SELECTIVE INHIBITORS OF GSK3 KINASES” (priority 2012, published 2016).

Tests used:
MAP2K4_Cascade = MAP2K4_Cascade (Homo sapiens, UniProt P45985)
Procedure: (§1) This was completed utilizing one of two assays depending on the kinase being examined.
(§2) A solution of IMAP binding reagent (IMAP Screening Express kit; Molecular Devices) (60 μL) was added to each well and incubated for 30 minutes.
(§3) A solution of termination buffer (QuickScout Screening assist MSA; Carna Biosciences) (60 μL) was added to each well. The entire reaction mixture was then applied to a LabChip3000 system (Caliper Life Science) and the product and substrate peptide peaks were separated and quantified.
(§4) The assay utilized was identical to that of the single point inhibitory activity determination (MSA) but run in dose response. […] A solution of termination buffer (QuickScout Screening assist MSA; Carna Biosciences) (60 μL) was added to each well. The entire reaction mixture was then applied to a LabChip3000 system (Caliper Life Science) and the product and substrate peptide peaks were separated and quantified.

MET = MET (Homo sapiens, UniProt P08581)
Procedure: as §2, §3, §4

MARK2 = MARK2 (Homo sapiens, UniProt Q7KZI7)
Procedure: as §1, §2, §3, §4

FYN = FYN (Homo sapiens, UniProt P06241)
Procedure: as §1, §2, §3, §4

MST3 = MST3 (Homo sapiens, UniProt Q9Y6E0)
Procedure: as §1, §2, §3, §4

IGF1R = IGF1R (Homo sapiens, UniProt P08069)
Procedure: as §1, §2, §3, §4

PKCι = PKCι (Homo sapiens, UniProt P41743)
Source text: as §1
(§5) The assay utilized was identical to that of the single point inhibitory activity determination (MSA) but run in dose response.

LTK = LTK (Homo sapiens, UniProt P29376)
Procedure: as §1, §2, §3, §4

AurB = AurB (Homo sapiens, UniProt Q96GD4)
Procedure: as §2, §3, §4

RET = RET (Homo sapiens, UniProt P07949)
Procedure: as §1, §2, §3

ARG = ARG (Homo sapiens, UniProt P42684)
Procedure: as §1, §2, §3

PKCθ = PKCθ (Homo sapiens, UniProt Q04759)
Procedure: as §1, §2, §3

KIT(V560G) = KIT(V560G) (Homo sapiens, UniProt P10721, V560G)
Procedure: as §1, §2, §3, §4

MAPKAPK2 = MAPKAPK2 (Homo sapiens, UniProt P49137)
Procedure: as §1, §2, §3, §4

TNIK = TNIK (Homo sapiens, UniProt Q9UKE5)
Procedure: as §1, §2, §3, §4

FGFR4 = FGFR4 (Homo sapiens, UniProt P22455)
Procedure: as §1, §2, §3

ACK = ACK (Homo sapiens, UniProt Q07912)
Procedure: as §1, §2, §3, §4

NEK2 = NEK2 (Homo sapiens, UniProt P51955)
Procedure: as §1, §2, §3, §4

NuaK2 = NuaK2 (Homo sapiens, UniProt Q9H093)
Procedure: as §1, §2, §3, §4

LYNa = LYNa (Homo sapiens, UniProt P07948)
Procedure: as §1, §2, §3

AMPKα1/β1/γ1 = AMPKα1/β1/γ1 (Homo sapiens, UniProt Q13131)
Source text: as §1, §5

PKACβ = PKACβ (Homo sapiens, UniProt P22694)
Procedure: as §1, §2, §3, §4

PKR = target: T1, PKR (Homo sapiens, UniProt P19525); experiment: Carna kinase panel; format: biochemical
T1 construct: purchased Carna Biosciences
Procedure: as §1, §2, §3

BTK = BTK (Homo sapiens, UniProt Q06187)
Procedure: as §1, §2, §3, §4

MAP2K1_Cascade = MAP2K1_Cascade (Homo sapiens, UniProt Q02750)
Procedure: as §1, §2, §3, §4

FGR = FGR (Homo sapiens, UniProt P09769)
Procedure: as §1, §2, §3, §4

MST1 = MST1 (Homo sapiens, UniProt Q13043)
Procedure: as §1, §2, §3, §4

FLT4 = FLT4 (Homo sapiens, UniProt P35916)
Procedure: as §1, §2, §3, §4

CK1γ1 = CK1γ1 (Homo sapiens, UniProt Q9HCP0)
Procedure: as §1, §2, §3, §4

Erk2 = Erk2 (Homo sapiens, UniProt P28482)
Procedure: as §1, §2, §3

RSK2 = RSK2 (Homo sapiens, UniProt P51812)
Procedure: as §1, §2, §3, §4

LYNb = LYNb (Homo sapiens, UniProt P07948)
Procedure: as §1, §2, §3, §4

WNK3 = WNK3 (Homo sapiens, UniProt Q9BYP7)
Procedure: as §1, §2, §3, §4

FGFR3(K650E) = FGFR3(K650E) (Homo sapiens, UniProt P22607, K650E)
Procedure: as §1, §2, §3, §4

Erk5 = target: T2, Erk5 (Homo sapiens, UniProt Q13164); experiment: Carna kinase panel; format: biochemical
T2 construct: purchased Carna Biosciences
Procedure: as §1, §2, §3

p70S6Kβ = p70S6Kβ (Homo sapiens, UniProt Q9UBS0)
Procedure: as §1, §2, §3, §4

PDGFRα(V561D) = PDGFRα(V561D) (Homo sapiens, UniProt P16234, V561D)
Procedure: as §1, §2, §3, §4

KIT(T670I) = KIT(T670I) (Homo sapiens, UniProt P10721, T670I)
Procedure: as §1, §2, §3, §4

JNK2 = JNK2 (Homo sapiens, UniProt P45984)
Procedure: as §1, §2, §3, §4

EML4-ALK = EML4-ALK (Homo sapiens, UniProt Q9UM73)
Procedure: as §1, §2, §3, §4

Sequence of RET (P07949 29-1114): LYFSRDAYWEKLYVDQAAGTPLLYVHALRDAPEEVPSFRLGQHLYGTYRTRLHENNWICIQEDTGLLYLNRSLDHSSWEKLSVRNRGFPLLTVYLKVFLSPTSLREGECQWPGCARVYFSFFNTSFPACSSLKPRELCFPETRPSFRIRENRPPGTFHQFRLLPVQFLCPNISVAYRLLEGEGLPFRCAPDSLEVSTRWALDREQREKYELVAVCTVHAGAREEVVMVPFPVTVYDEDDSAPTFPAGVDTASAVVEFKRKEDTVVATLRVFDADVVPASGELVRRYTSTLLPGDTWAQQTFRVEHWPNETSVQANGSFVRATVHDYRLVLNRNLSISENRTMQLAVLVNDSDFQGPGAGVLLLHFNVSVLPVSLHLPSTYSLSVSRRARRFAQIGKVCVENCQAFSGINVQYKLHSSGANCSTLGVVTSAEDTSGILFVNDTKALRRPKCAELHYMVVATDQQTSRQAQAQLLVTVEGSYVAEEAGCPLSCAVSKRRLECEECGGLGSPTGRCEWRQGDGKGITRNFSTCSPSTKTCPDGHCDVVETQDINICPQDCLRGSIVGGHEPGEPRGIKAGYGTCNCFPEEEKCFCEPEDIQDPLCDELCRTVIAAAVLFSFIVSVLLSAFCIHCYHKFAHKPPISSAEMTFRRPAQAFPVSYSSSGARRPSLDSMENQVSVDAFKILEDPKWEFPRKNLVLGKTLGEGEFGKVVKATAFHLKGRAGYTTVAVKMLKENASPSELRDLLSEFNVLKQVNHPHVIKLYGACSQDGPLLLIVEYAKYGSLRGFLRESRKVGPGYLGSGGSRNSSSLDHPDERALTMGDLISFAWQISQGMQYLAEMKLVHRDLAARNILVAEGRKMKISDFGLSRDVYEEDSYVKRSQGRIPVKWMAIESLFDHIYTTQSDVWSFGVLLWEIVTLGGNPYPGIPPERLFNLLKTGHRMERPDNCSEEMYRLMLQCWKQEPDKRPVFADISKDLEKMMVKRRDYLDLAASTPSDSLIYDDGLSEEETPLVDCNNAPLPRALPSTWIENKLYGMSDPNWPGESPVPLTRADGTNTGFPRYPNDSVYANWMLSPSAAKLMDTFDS
Sequence of PKCθ (Q04759 whole entry): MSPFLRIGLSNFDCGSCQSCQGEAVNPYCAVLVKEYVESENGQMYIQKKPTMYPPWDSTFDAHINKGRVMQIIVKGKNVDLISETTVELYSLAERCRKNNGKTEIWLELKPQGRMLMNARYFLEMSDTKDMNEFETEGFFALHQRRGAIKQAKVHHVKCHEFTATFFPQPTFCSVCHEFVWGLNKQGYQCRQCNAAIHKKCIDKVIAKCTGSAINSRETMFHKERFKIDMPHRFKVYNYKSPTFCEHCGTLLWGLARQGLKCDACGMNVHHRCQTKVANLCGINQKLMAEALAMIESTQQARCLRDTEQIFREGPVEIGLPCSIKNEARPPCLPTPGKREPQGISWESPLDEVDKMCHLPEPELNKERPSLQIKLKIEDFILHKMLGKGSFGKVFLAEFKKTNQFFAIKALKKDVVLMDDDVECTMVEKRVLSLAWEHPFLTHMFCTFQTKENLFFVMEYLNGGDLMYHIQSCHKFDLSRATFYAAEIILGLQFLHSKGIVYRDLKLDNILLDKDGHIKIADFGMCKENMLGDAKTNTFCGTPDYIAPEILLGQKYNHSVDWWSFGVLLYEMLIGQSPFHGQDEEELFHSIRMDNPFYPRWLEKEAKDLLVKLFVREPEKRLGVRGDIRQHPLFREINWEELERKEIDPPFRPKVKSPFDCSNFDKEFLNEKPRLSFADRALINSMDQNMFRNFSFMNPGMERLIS
Sequence of MAP2K4_Cascade (P45985 2-399 limits assumed): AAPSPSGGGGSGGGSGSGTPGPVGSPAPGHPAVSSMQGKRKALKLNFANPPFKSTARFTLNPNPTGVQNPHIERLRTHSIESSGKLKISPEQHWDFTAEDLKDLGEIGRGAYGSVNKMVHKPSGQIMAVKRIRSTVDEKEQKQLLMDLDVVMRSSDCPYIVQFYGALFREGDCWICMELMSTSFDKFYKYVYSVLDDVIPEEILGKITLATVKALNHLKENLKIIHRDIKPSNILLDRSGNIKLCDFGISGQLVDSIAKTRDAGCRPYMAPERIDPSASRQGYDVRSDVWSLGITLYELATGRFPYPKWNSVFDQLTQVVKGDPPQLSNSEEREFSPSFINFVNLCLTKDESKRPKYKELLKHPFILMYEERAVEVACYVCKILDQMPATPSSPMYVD
Sequence of RSK2 (P51812 whole entry): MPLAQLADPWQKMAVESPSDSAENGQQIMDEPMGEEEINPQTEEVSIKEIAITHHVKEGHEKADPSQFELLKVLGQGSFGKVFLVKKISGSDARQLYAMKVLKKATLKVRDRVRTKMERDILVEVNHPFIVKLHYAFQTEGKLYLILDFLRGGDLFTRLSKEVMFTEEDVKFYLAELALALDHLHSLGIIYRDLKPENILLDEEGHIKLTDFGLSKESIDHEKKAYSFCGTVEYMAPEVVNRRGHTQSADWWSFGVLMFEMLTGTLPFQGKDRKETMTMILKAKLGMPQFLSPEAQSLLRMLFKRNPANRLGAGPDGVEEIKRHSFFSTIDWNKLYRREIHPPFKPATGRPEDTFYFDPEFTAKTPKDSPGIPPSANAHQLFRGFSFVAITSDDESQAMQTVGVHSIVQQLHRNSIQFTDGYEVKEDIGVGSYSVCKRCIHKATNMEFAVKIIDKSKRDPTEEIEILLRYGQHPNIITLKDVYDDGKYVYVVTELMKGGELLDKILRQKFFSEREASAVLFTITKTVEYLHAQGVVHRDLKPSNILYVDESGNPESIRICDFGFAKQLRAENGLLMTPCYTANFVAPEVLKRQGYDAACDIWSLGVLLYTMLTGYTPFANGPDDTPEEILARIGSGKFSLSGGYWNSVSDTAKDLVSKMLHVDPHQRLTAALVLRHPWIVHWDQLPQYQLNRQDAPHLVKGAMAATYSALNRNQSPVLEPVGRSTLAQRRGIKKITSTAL
Sequence of AMPKα1/β1/γ1 (Q13131 whole entry): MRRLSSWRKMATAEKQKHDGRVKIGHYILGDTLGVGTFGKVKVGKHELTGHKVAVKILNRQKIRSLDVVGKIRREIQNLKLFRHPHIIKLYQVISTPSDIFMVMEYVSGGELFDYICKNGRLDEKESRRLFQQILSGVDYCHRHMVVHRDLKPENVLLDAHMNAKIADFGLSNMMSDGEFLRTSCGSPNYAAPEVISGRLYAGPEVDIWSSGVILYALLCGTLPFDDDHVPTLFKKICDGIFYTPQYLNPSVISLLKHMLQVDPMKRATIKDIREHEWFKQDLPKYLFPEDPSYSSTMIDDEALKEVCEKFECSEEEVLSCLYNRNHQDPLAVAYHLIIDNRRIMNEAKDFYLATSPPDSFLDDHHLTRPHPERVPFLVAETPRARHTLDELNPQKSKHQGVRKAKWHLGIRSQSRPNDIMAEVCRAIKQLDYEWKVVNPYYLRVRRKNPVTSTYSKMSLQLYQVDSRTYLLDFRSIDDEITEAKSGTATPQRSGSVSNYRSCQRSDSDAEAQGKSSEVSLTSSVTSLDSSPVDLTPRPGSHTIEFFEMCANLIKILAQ
Sequence of AMPKα1/β1/γ1 (Q9Y478 whole entry partner): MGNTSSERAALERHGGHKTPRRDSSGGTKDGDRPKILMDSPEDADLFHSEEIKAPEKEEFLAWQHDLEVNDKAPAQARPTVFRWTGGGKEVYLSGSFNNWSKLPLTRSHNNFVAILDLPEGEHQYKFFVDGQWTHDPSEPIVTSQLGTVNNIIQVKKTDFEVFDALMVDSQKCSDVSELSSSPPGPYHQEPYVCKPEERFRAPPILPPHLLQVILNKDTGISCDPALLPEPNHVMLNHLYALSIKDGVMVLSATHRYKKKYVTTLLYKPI
Sequence of AMPKα1/β1/γ1 (P54619 whole entry partner): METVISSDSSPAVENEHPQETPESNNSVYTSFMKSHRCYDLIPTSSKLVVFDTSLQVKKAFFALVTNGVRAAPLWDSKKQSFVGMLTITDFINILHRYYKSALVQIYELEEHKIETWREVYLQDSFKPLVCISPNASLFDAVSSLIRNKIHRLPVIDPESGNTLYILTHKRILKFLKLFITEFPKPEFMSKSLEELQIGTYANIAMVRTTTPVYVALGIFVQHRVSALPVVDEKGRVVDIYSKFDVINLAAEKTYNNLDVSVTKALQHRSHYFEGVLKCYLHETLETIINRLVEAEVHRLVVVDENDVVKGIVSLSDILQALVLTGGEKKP
Sequence of NuaK2 (Q9H093 whole entry): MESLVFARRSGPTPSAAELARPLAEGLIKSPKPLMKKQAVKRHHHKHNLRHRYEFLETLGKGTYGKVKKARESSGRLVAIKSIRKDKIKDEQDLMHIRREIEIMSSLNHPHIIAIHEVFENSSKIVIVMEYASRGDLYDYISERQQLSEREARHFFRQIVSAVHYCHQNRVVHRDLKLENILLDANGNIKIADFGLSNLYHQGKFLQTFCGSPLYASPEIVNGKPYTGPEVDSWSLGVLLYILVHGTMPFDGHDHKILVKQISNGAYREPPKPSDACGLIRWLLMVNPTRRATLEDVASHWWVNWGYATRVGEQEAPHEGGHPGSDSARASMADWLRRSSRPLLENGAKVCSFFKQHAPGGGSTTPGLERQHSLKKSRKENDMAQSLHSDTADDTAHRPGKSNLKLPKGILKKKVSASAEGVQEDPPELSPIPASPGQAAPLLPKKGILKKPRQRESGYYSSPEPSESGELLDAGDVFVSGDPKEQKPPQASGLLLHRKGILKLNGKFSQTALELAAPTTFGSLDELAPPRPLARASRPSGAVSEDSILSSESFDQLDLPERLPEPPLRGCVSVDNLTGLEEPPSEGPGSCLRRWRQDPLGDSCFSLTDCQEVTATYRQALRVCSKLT

Structure (SMILES): CC[C@@]1(c2ccccc2)C2=C(CC(C)(C)CC2=O)Nc2n[nH]cc21 [BRD0705]
- % Inhibition at 10 μM (MAP2K4_Cascade): −3.0%
- % Inhibition at 10 μM (MET): −2.4%
- % Inhibition at 10 μM (MARK2): −6.2%
- % Inhibition at 10 μM (FYN): 3.1%
- % Inhibition at 10 μM (MST3): 11.7%
- % Inhibition at 10 μM (IGF1R): −2.5%
- % Inhibition at 10 μM (PKCι): −4.3%
- % Inhibition at 10 μM (LTK): −3.6%
- % Inhibition at 10 μM (AurB): −2.8%
- % Inhibition at 10 μM (RET): −5.6%
- % Inhibition at 10 μM (ARG): 1.1%
- % Inhibition at 10 μM (PKCθ): −12.0%
- % Inhibition at 10 μM (KIT(V560G)): −1.7%
- % Inhibition at 10 μM (MAPKAPK2): −22.4%
- % Inhibition at 10 μM (TNIK): 6.8%
- % Inhibition at 10 μM (FGFR4): −13.4%
- % Inhibition at 10 μM (ACK): −4.5%
- % Inhibition at 10 μM (NEK2): −4.5%
- % Inhibition at 10 μM (NuaK2): −1.7%
- % Inhibition at 10 μM (LYNa): −0.4%
- % Inhibition at 10 μM (AMPKα1/β1/γ1): −4.1%
- % Inhibition at 10 μM (PKACβ): −7.7%
- % Inhibition at 10 μM (PKR): 2.0%
- % Inhibition at 10 μM (BTK): 2.1%
- % Inhibition at 10 μM (MAP2K1_Cascade): 3.0%
- % Inhibition at 10 μM (FGR): −3.4%
- % Inhibition at 10 μM (MST1): −7.3%
- % Inhibition at 10 μM (FLT4): −7.9%
- % Inhibition at 10 μM (CK1γ1): −3.4%
- % Inhibition at 10 μM (Erk2): 1.6%
- % Inhibition at 10 μM (RSK2): 0.4%
- % Inhibition at 10 μM (LYNb): 2.2%
- % Inhibition at 10 μM (WNK3): −3.7%
- % Inhibition at 10 μM (FGFR3(K650E)): −15.5%
- % Inhibition at 10 μM (Erk5): −7.9%
- % Inhibition at 10 μM (p70S6Kβ): −2.1%
- % Inhibition at 10 μM (PDGFRα(V561D)): −3.7%
- % Inhibition at 10 μM (KIT(T670I)): −0.8%
- % Inhibition at 10 μM (JNK2): −2.5%
- % Inhibition at 10 μM (EML4-ALK): 3.4%

Structure (SMILES): CC(C)(C)Cc1[nH]nc2c1[C@](C)(c1ccccc1)C1=C(CC(C)(C)CC1=O)N2 [BRD3731]
- % Inhibition 10 μM (MAP2K4_Cascade; 10 μM): 7.6%
- % Inhibition 10 μM (MET; 10 μM): −0.8%
- % Inhibition 10 μM (MARK2; 10 μM): 16.5%
- % Inhibition 10 μM (FYN; 10 μM): −1.3%
- % Inhibition 10 μM (MST3; 10 μM): 7.4%
- % Inhibition 10 μM (IGF1R; 10 μM): −1.5%
- % Inhibition 10 μM (PKCι; 10 μM): 2.5%
- % Inhibition 10 μM (LTK; 10 μM): −3.5%
- % Inhibition 10 μM (AurB; 10 μM): −2.3%
- % Inhibition 10 μM (RET; 10 μM): 3.0%
- % Inhibition 10 μM (ARG; 10 μM): 6.4%
- % Inhibition 10 μM (PKCθ; 10 μM): 12.1%
- % Inhibition 10 μM (KIT(V560G); 10 μM): 1.4%
- % Inhibition 10 μM (MAPKAPK2; 10 μM): 22.4%
- % Inhibition 10 μM (TNIK; 10 μM): −1.2%
- % Inhibition 10 μM (FGFR4; 10 μM): −8.1%
- % Inhibition 10 μM (ACK; 10 μM): −1.3%
- % Inhibition 10 μM (NEK2; 10 μM): −2.1%
- % Inhibition 10 μM (NuaK2; 10 μM): −2.8%
- % Inhibition 10 μM (LYNa; 10 μM): −0.3%
- % Inhibition 10 μM (AMPKα1/β1/γ1; 10 μM): 11.2%
- % Inhibition 10 μM (PKACβ; 10 μM): 9.3%
- % Inhibition 10 μM (PKR; 10 μM): 3.1%
- % Inhibition 10 μM (BTK; 10 μM): 0.3%
- % Inhibition 10 μM (MAP2K1_Cascade; 10 μM): 3.1%
- % Inhibition 10 μM (FGR; 10 μM): 12.0%
- % Inhibition 10 μM (MST1; 10 μM): 3.9%
- % Inhibition 10 μM (FLT4; 10 μM): 16.8%
- % Inhibition 10 μM (CK1γ1; 10 μM): 1.2%
- % Inhibition 10 μM (Erk2; 10 μM): 0.9%
- % Inhibition 10 μM (RSK2; 10 μM): 42.8%
- % Inhibition 10 μM (LYNb; 10 μM): 2.9%
- % Inhibition 10 μM (WNK3; 10 μM): 2.1%
- % Inhibition 10 μM (FGFR3(K650E); 10 μM): 0.7%
- % Inhibition 10 μM (Erk5; 10 μM): 4.5%
- % Inhibition 10 μM (p70S6Kβ; 10 μM): 12.6%
- % Inhibition 10 μM (PDGFRα(V561D); 10 μM): 6.6%
- % Inhibition 10 μM (KIT(T670I); 10 μM): −0.3%
- % Inhibition 10 μM (JNK2; 10 μM): −3.9%
- % Inhibition 10 μM (EML4-ALK; 10 μM): −7.2%
